For experiment [1], the target named is IL-8 receptors (CXCR-1 and CXCR-2). Description: Inhibition of binding of I125 labeled IL-8 to IL-8 receptors. The note with it: I125 labeled IL-8 as competitor; read-out: IC50, inhibition of binding of IL-8 to CXCR-1 and/or CXCR-2. As to the method: This example discloses the ability of compounds of the invention, such as benzopyrone derivatives, such as CTCM192 (1), to inhibit binding of IL-8 to IL-8 receptors (CXCR-1 and CXCR-2). The binding studies were conducted using I^125 labeled IL-8 as competitor.

In experiment [2] the test system is IL-8-induced [Ca2+]i mobilization in THP1 cells. Description: Inhibition of IL-8-induced intracellular [Ca2+]i mobilization in THP1 cells. The experiment is classed as cell-based. The note with it: Homo sapiens, THP-1; Fura-2,AM loaded THP1 cells, incubated 60 min prior to induction by 12 nM IL-8. As to the method:
A rapid, transient rise in the free cytosolic Ca^2+ concentration ([Ca^2+])i) is one of the events associated with the Chemokine mediated induction of the associated receptors and is assumed to be involved in many of the subsequent cellular reactions. Both Ca^2+ release from intracellular stores and Ca^2+ influx from the extracellular space contribute to the rise in [Ca^2+]i. […] Fura-2,AM loaded THP1 cells were incubated with CTCM192 for 60 min prior to induction of [Ca^2+]i mobilization by 12 nM IL-8. Results illustrate the effect of CTCM192 (1) on IL-8-induced Ca^2+ mobilization.
In accordance with this aspect of the invention, the benzopyrone derivative, Geetokine, such as compound 1 or corresponding salts may be used for the treatment of a wide range of inflammatory diseases such as gout, arthritis osteoarthritis, rheumatoid arthritis, and ARDS.

The text below walks through data of patent publication US6515001B2, “IL-8 receptor ligands-drugs for inflammatory and autoimmune diseases” (Chemokine Therapeutic Corporation, priority 2001, dated 2003).

Regarding `Cc1csc(-c2coc3cc(OC(=O)C(Cc4ccccc4)NC(=O)OCc4ccccc4)cc(C)c3c2=O)n1` (centres unmarked) [Compound 1, [7-[5-methylbenzopyrone-5′(3′-methyl)-thiazole]-phenylalanine-benyl ester]], the IC50 worked out at 45 µM in experiment [1] and 0.34 µM in experiment [2].
